Publication PMC10799935, “Discovery of a peripheral 5HT2A antagonist as a clinical candidate for metabolic dysfunction-associated steatohepatitis” (Nature Communications, 2024)
Several values for one entry are separate records, joined by “and”; a condition that tells them apart may be missing. Equal values may be shown once.

Tests used:
5HT3 = 5HT3 (Homo sapiens, UniProt P46098); test: 5HT subtype selectivity: 5HT3; format: cell-based; details: concentration not given
Experimental: The derivatives were evaluated at a concentration of 1 μM for their antagonist activity on the 5HT2A receptor (Tables 1–3)[33],[34]. Human 5HT2A stably transfected HEK293 cells (a type of cell derived from kidney embryos)[20] were seeded in a 96-well plate (Costar; 3603) at a density of 9 × 10^4 in 100 μL of minimum essential medium (Welgene; LM007-86) containing 10% dialyzed fetal bovine serum (Gibco; 30067–334) and 1% penicillin/streptomycin (Gibco; 15140-122) and kept in a 37 °C incubator for 24 h. The cells were stained with 100 μL of cytosolic calcium dye using the FLIPR calcium 6 assay solution (Molecular devices, #R8190) supplemented with 2.5 mM probenecid (Sigma; P8761) and incubated for 1 h at 37 °C. After 1 h, the designated amount of the compound was treated in each well and incubated for another 1 h at 37 °C. Then, the cells were loaded in a Flexstation 3 microplate reader (Molecular Devices; FlexStaion) and 50 μL of 5 μM 5HT (serotonin hydrochloride, Sigma; H9523) was injected from a source plate (Nunc 96-well polystyrene conical bottom MicroWell Plate, Thermo; 249662) and the fluorescence intensity (Ex/Em-485nm/ 525 nm) was measured. (Supplementary Fig. 5) For determining the IC50 values of other 5HT subtypes, an Inhibition assay was performed by Eurofins Cerep (Study ID: FR095-0014987, FR095-0016438). […]

5HT2A = 5HT2A (Homo sapiens, UniProt P28223); test: Human 5HT2A inhibition assay (FLIPR calcium 6, 5HT stimulus, stably transfected HEK293 cells); format: cell-based; parameters: expressed in transfected cells; host or cells: HEK293; details: HEK293, 1 μM; read-out: % Inhibition at 1 μM (SD)
5HT2A, sequence (P28223 whole entry): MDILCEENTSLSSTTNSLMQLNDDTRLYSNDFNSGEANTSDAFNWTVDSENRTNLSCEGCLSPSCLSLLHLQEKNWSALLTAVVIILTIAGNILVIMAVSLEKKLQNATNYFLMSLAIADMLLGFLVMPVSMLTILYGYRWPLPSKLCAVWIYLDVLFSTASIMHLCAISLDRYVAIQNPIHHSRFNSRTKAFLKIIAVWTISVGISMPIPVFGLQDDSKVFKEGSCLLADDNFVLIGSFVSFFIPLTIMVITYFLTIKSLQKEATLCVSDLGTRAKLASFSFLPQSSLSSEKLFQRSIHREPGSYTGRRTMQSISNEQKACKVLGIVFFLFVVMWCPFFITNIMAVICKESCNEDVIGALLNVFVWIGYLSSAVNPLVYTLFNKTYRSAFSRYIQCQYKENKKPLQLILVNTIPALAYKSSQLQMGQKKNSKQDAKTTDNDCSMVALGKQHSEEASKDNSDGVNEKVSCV
Experimental: The derivatives were evaluated at a concentration of 1 μM for their antagonist activity on the 5HT2A receptor (Tables 1–3)[33],[34]. […] The cells were stained with 100 μL of cytosolic calcium dye using the FLIPR calcium 6 assay solution (Molecular devices, #R8190) supplemented with 2.5 mM probenecid (Sigma; P8761) and incubated for 1 h at 37 °C. After 1 h, the designated amount of the compound was treated in each well and incubated for another 1 h at 37 °C. […] Experimental conditions for the 5HT subtypes can be found in the Supporting Information (Supplementary Table 1).

HFD-fed C57BL/6J mice = test: DIO mice (HFD, 8 weeks): body weight; format: in vivo, mouse; details: for Body weight: Predicted (LS) mean diff., Vehicle vs. 11c: Dunnett's test; for 16hr fasting B.W.: DIO C57BL/6J mice, PO; for Body weight: DIO mice, 5mpk PO, individual mice and group Mean, in g (unit assumed)
Excerpt: For in vivo efficacy in DIO models and CDAHFD models, the experimental protocol for this study was approved by the Institutional Animal Care and Use Committee (IACUC) at the Korea Advanced Institute of Science and Technology (No. KA2023-027-v2) or Kyungpook National University (No. KNU-20200134). All relevant ethical guidelines were followed. C57BL/6 J male mice (11 weeks old) were purchased from the Charles River Japan and were housed in a specific pathogen-free barrier facility under a regular light-dark cycle (12-hour light/12-hour dark) at 24°C with 40–60% humidity. Food (standard chow diet, Envigo, 2018S) and water were provided ad libitum. […] Mice were euthanized by the method of cervical dislocation. The measurement of lean and fat mass in live mice was performed by a body composition analyzer (LF50 BCA-analyzer, Bruker). After 6 h of fasting, mice were sacrificed, and tissue samples were obtained.

5HT3, sequence (P46098 24-478): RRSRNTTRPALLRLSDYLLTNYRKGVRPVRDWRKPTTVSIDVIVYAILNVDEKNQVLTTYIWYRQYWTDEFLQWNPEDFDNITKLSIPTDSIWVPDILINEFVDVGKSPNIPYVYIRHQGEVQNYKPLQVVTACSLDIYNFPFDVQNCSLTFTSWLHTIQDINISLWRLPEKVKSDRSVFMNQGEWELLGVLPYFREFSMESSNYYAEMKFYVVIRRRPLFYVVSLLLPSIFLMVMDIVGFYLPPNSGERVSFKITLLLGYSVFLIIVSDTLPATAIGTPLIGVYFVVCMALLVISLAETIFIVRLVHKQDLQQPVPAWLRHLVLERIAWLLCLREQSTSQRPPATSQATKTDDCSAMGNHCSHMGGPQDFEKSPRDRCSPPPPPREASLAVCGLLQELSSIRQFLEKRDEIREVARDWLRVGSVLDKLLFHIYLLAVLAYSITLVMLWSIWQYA

## Cc1nc2n(c(=O)c1CCN1CCC(=C3c4ccc(Cl)cc4CCc4cccnc43)CC1)CCCC2O (stereo not drawn) [Compound 11c]
5HT3
  Selectivity 3: % inhibition: -1%
5HT2A
  inhibition at 1 µM: 92.56 ± 0.77%
HFD-fed C57BL/6J mice; 5mpk, week 12
  Body weight: Predicted (LS) mean diff., Vehicle vs. 11c: 0.7 g
HFD-fed C57BL/6J mice; 5mpk, week 13
  Body weight: Predicted (LS) mean diff., Vehicle vs. 11c: 0.6 g
HFD-fed C57BL/6J mice; 5mpk, week 14
  Body weight: Predicted (LS) mean diff., Vehicle vs. 11c: 0.7 g
HFD-fed C57BL/6J mice; 5mpk, week 15
  Body weight: Predicted (LS) mean diff., Vehicle vs. 11c: 0.6 g
HFD-fed C57BL/6J mice; 5mpk, week 16
  Body weight: Predicted (LS) mean diff., Vehicle vs. 11c: 1.1 g
HFD-fed C57BL/6J mice; 5mpk, week 17
  Body weight: Predicted (LS) mean diff., Vehicle vs. 11c: 1.7 g
HFD-fed C57BL/6J mice; 5mpk, week 18
  Body weight: Predicted (LS) mean diff., Vehicle vs. 11c: 2.1 g
HFD-fed C57BL/6J mice; 5mpk, week 19
  Body weight: Predicted (LS) mean diff., Vehicle vs. 11c: 2.7 g
HFD-fed C57BL/6J mice; 5mpk, week 20
  Body weight: Predicted (LS) mean diff., Vehicle vs. 11c: 2.7 g
HFD-fed C57BL/6J mice; 5mpk, week 21
  Body weight: Predicted (LS) mean diff., Vehicle vs. 11c: 3.4 g
HFD-fed C57BL/6J mice; 10 mpk daily oral gavage, 8 weeks, vs vehicle-treated mice
  body weight gain upon HFD: attenuated
HFD-fed C57BL/6J mice; 10mpk, week 12
  Body weight: Predicted (LS) mean diff., Vehicle vs. 11c: 0.1 g
HFD-fed C57BL/6J mice; 10mpk, week 13
  Body weight: Predicted (LS) mean diff., Vehicle vs. 11c: 0.9 g
HFD-fed C57BL/6J mice; 10mpk, week 14
  Body weight: Predicted (LS) mean diff., Vehicle vs. 11c: 1.5 g
HFD-fed C57BL/6J mice; 10mpk, week 15
  Body weight: Predicted (LS) mean diff., Vehicle vs. 11c: 1.8 g
HFD-fed C57BL/6J mice; 10mpk, week 16
  Body weight: Predicted (LS) mean diff., Vehicle vs. 11c: 3.7 g
HFD-fed C57BL/6J mice; 10mpk, week 17
  Body weight: Predicted (LS) mean diff., Vehicle vs. 11c: 6.3 g
HFD-fed C57BL/6J mice; 10mpk, week 18
  Body weight: Predicted (LS) mean diff., Vehicle vs. 11c: 7.2 g
HFD-fed C57BL/6J mice; 10mpk, week 19
  Body weight: Predicted (LS) mean diff., Vehicle vs. 11c: 7.7 g
HFD-fed C57BL/6J mice; 10mpk, week 20
  Body weight: Predicted (LS) mean diff., Vehicle vs. 11c: 7.2 g
HFD-fed C57BL/6J mice; 10mpk, week 21
  Body weight: Predicted (LS) mean diff., Vehicle vs. 11c: 7.2 g
HFD-fed C57BL/6J mice; 5mpk, group mean
  16hr fasting B.W.: 41.2
HFD-fed C57BL/6J mice; 5mpk, individual animals, 5 mg/kg
  16hr fasting B.W.: 43.7 and 38.6 and 37.5 and 35.1 and 41.4 and 48.5 and 43.4
HFD-fed C57BL/6J mice; 10mpk, group mean
  16hr fasting B.W.: 36.5
HFD-fed C57BL/6J mice; 10mpk, individual animals, 10 mg/kg
  16hr fasting B.W.: 33.5 and 41.1 and 34.8 and 42.8 and 35.7 and 31.2
HFD-fed C57BL/6J mice; week 12 (2021.04.26), 5 mg/kg
  Body weight: 25.4 and 23.4 and 24.4 and 26.8 and 26.0 and 30.2 and 25.6
HFD-fed C57BL/6J mice; week 13, 5 mg/kg
  Body weight: 29.8 and 27.5 and 28.5 and 28.2 and 28.9 and 32.0 and 29.6
HFD-fed C57BL/6J mice; week 13, 5 mg/kg, mean
  Body weight: 29.2
HFD-fed C57BL/6J mice; week 14, 5 mg/kg
  Body weight: 32.9 and 29.6 and 29.0 and 31.0 and 34.0 and 31.6
HFD-fed C57BL/6J mice; week 15, 5 mg/kg
  Body weight: 35.3 and 30.6 and 29.8 and 29.5 and 33.2 and 37.1 and 34.1
HFD-fed C57BL/6J mice; week 15, 5 mg/kg, mean
  Body weight: 32.8
HFD-fed C57BL/6J mice; week 16, 5 mg/kg
  Body weight: 37.5 and 32.7 and 32.5 and 31.1 and 35.5 and 40.4 and 36.8
HFD-fed C57BL/6J mice; week 16, 5 mg/kg, mean
  Body weight: 35.2
HFD-fed C57BL/6J mice; week 17, 5 mg/kg
  Body weight: 39.7 and 34.6 and 33.9 and 32.4 and 37.7 and 43.6 and 39.6
HFD-fed C57BL/6J mice; week 17, 5 mg/kg, mean
  Body weight: 37.4
HFD-fed C57BL/6J mice; week 18, 5 mg/kg
  Body weight: 41.7 and 36.9 and 35.3 and 33.1 and 40.0 and 45.0 and 41.5
HFD-fed C57BL/6J mice; week 18, 5 mg/kg, mean
  Body weight: 39.1
HFD-fed C57BL/6J mice; week 19, 5 mg/kg
  Body weight: 43.5 and 38.6 and 37.3 and 34.8 and 41.8 and 47.5 and 43.3
HFD-fed C57BL/6J mice; week 19, 5 mg/kg, mean
  Body weight: 41.0
HFD-fed C57BL/6J mice; week 20, 5 mg/kg
  Body weight: 45.7 and 40.4 and 39.5 and 37.0 and 43.5 and 51.0 and 45.4
